Reference: patent EP4458820A1 (Shanghai Institute of Materia Medica, Chinese Academy of …, priority 2021, dated 2023)
Several values for one entry are separate records, joined by “and”; a condition that tells them apart may be missing. Identical values can stand only once. Like-named read-outs stand apart in the source and are kept apart here.

Experiments:
[1] = pharmacokinetic studies in mice; format: in vivo; set-up: AUC(0-t) / AUClast: concentration or dose not given beside the values; details: for F: bioavailability p.o. versus i.v.
Method: The preliminary pharmacokinetic studies in mice or rats of the target compounds with excellent activity obtained from the above studies were conducted to investigate the pharmacokinetic properties of the compounds under oral, intraperitoneal and intravenous administration in detail, and to calculate the parameters of in vivo exposure (AUC), peak concentration (Cmax), time to peak (Tmax), half-life period (T1/2) and bioavailability (F), which would provide a clue for further structural modification and optimization of the compounds, as well as a basis for in vivo dosage design.

thyroid axis = experiment: inhibitory effect on the thyroid axis in C57 mice; format: in vivo; details: administered at high doses
[2] = system: THRβ receptor downstream genes; experiment: acute pharmacodynamic evaluation: THRβ receptor downstream gene expression in liver after single administration; format: in vivo, C57 mice
Source text: (§1) Mice or rats were used for single oral administration, and liver and heart were taken at 3 time points after administration to detect the expression of THRβ receptor downstream genes (DIO1, ME, CYP7α1, LDLR) in the target organ-liver, and to detect the expression of THRβ receptor downstream genes (DIO1, MHCα) in the organ involved in toxicity-heart.

MHCα = experiment: preliminary safety assessment: MHCα expression in the heart of C57 mice; format: in vivo; details: after administration
Source text: as §1

[3] = system: high-fat feed -induced golden hamster model; experiment: pharmacodynamic evaluation in high-fat feed-induced golden hamster model; format: in vivo; details: 10 mg/kg, after 21 days of administration
[4] = system: cardiac DIO1 and MHCα genes; experiment: in vivo safety evaluation: downstream gene expression in the heart of thyroidectomized rats
Method: Normal SD rats, which underwent thyroidectomy and recovered for 1-2 weeks, were grouped by body weight and then given the test compounds or the positive compound MGL-3196. Cardiac tissues were taken after euthanasia 6 h after the administration of the drug to examine the expression of the αMHC gene in the heart after single dose of the drug.

[5] = system: CDAHFD feed-induced NAFLD model mice; experiment: pharmacodynamic evaluation in CDAHFD feed-induced NAFLD model mice; format: in vivo; details: after 2 and 4 weeks of long-term administration
[6] = tissue distribution studies in mice; format: in vivo; details: for concentration at 3 h / concentration at 8 h / concentration at 24 h: mouse, po
[7] = mouse, in vivo, iv, individual animal
[8] = mouse, in vivo, po, individual animal
[9] = mouse, in vivo, po, individual animal, read-out: Cmax
[10] = mouse, in vivo, po, individual animal, read-out: Tmax
[11] = mouse, in vivo, po, mean, read-out: Cmax
[12] = mouse, in vivo, po, mean, read-out: Tmax
[13] = Table 4, oral 10 mg/kg, 3 h, individual animal, 10 mg/kg
[14] = Table 4, oral 10 mg/kg, 8 h, individual animal, 10 mg/kg
[15] = Table 4, oral 10 mg/kg, 24 h, individual animal, 10 mg/kg
[16] = Table 6, oral 10 mg/kg, 3.00 h, individual animal, 10 mg/kg
[17] = Table 6, oral 10 mg/kg, 8.00 h, individual animal, 10 mg/kg
[18] = Table 6, oral 10 mg/kg, 24.0 h, individual animal, 10 mg/kg

## Cc1cc(-c2ccc(F)cc2)nc2ccc(Oc3c(Cl)cc(-n4nc(C#N)c(=O)[nH]c4=O)cc3Cl)cc12 [Compound 3, 2-(3,5-Dichloro-4-((2-(4-fluorophenyl) -4-methylquinolin-6-yl)oxy)phenyl) -3,5-dioxo-2,3,4,5-tetrahydro-1,2,4-triazine-6-carbonitrile]
[1]
  F: 36.3%
[1]; i.v., individual animal
  AUClast: 106.173 µg·h/mL and 104.125 µg·h/mL
  CL_obs: 0.67 mL/min/kg and 0.76 mL/min/kg and 0.75 mL/min/kg
  T1/2: 5.10 h and 6.62 h
  Vss_obs: 0.289 L/kg and 0.253 L/kg and 0.315 L/kg
[1]; i.v., mean
  CL_obs: 0.73 mL/min/kg
  Vss_obs: 0.286 L/kg
[1]; [7]
  AUC(0-t): 118 µg·h/mL
  half-life: 6.4 h
[1]; mouse, in vivo, iv, mean
  AUC(0-t): 109 µg·h/mL
  half-life: 6.04 h
[1]; [8]
  AUC(0-t): 62.5 µg·h/mL
  half-life: 4.31 h
[1]; [9]
  Cmax: 9650 ng/mL
[1]; [10]
  Tmax: 1 h
[1]; mouse, in vivo, po, mean
  AUC(0-t): 79.4 µg·h/mL
  half-life: 4.71 h
[1]; [11]
  Cmax: 10500 ng/mL
[1]; [12]
  Tmax: 0.83 h
[1]; p.o., individual animal
  AUClast: 100.901 µg·h/mL and 74.686 µg·h/mL
  Cmax: 12800 ng/mL and 9108 ng/mL
  T1/2: 4.80 h and 5.02 h
  Tmax: 0.50 h
Thyroid axis
  thyroid hormone levels: did not affect
[2]; 3h after administration
  hepatic DIO1 gene expression: significantly up-regulated
[2]; after 8 h of administration, compared with the negative control group
  hepatic DIO1 gene expression: still effective
MHCα
  upregulation of MHCα in the heart: did not result in upregulation

## Cc1cc(C(F)(F)F)nc2ccc(Oc3c(Cl)cc(-n4nc(C#N)c(=O)[nH]c4=O)cc3Cl)cc12 [Compound 38, 2-(3,5-Dichloro-4-((2-trifluoromethyl-4-methylquinolin-6-yl)oxy)phenyl) -3,5-dioxo-2,3,4,5-tetrahydro-1,2,4-triazine-6-carbonitrile]
[3]
  serum TC/TG levels and LCL-C levels: significant decrease
[4]
  effects on cardiac DIO1 and MHCα genes: neither compound 38 nor MGL3196 had significant effects
[5]; 1 mg/kg dosage group
  plasma TC levels: decreased
[5]; 10 mg/kg dosage group
  plasma TC levels: decreased
[1]
  F: 75.8%
[1]; i.v., individual animal
  AUClast: 95.351 µg·h/mL and 95.119 µg·h/mL
  CL_obs: 0.691 mL/min/kg and 0.859 mL/min/kg and 0.856 mL/min/kg
  Cmax: 95119 ng/mL
  T1/2: 4.30 h and 4.77 h
  Vss_obs: 0.22 L/kg and 0.27 L/kg and 0.267 L/kg
[1]; i.v., mean
  CL_obs: 0.802 mL/min/kg
  Vss_obs: 0.252 L/kg
[1]; [7]
  AUC(0-t): 119 µg·h/mL
  half-life: 3.93 h
[1]; mouse, in vivo, iv, individual animal, read-out: Cmax
  Cmax: 95400 ng/mL
[1]; mouse, in vivo, iv, mean
  AUC(0-t): 103 µg·h/mL
  half-life: 4.33 h
[1]; [8]
  AUC(0-t): 162 µg·h/mL
  half-life: 5.01 h
[1]; [9]
  Cmax: 26000 ng/mL
[1]; [10]
  Tmax: 0.5 h
[1]; mouse, in vivo, po, mean
  AUC(0-t): 156 µg·h/mL
  half-life: 4.44 h
[1]; [11]
  Cmax: 23100 ng/mL
[1]; [12]
  Tmax: 0.83 h
[1]; p.o., individual animal
  AUClast: 176.967 µg·h/mL and 130.466 µg·h/mL
  Cmax: 23595 ng/mL and 19689 ng/mL
  T1/2: 4.18 h and 4.13 h
  Tmax: 1.00 h
[6]; [13]
  Heart: 115 ng/g and 199 ng/g and 113 ng/g
  Liver: 3778 ng/g and 3241 ng/g and 3353 ng/g
  Plasma: 8371 ng/mL and 7102 ng/mL and 6639 ng/mL
[6]; [14]
  Heart: 39.9 ng/g and 72.2 ng/g and 26.4 ng/g and 63.3 ng/g
  Liver: 582 ng/g and 895 ng/g and 264 ng/g and 729 ng/g
  Plasma: 2473 ng/mL and 4555 ng/mL and 2005 ng/mL and 3847 ng/mL
[6]; Table 4, oral 10 mg/kg, 24 h, individual animal
  Heart: BLQ
[6]; [15]
  Liver: 29.5 ng/g and 27.8 ng/g and 14.5 ng/g and 16.3 ng/g
  Plasma: 281 ng/mL and 192 ng/mL and 88.6 ng/mL and 93.6 ng/mL
[6]; [16]
  Heart: 215 ng/g and 169 ng/g
  Liver: 1478 ng/g and 1383 ng/g
  Plasma: 5796 ng/mL and 4534 ng/mL
[6]; [17]
  Heart: 196 ng/g and 116 ng/g
  Liver: 614 ng/g and 469 ng/g
  Plasma: 4487 ng/mL and 2490 ng/mL
[6]; [18]
  Heart: 6.36 ng/g and 13.7 ng/g and 20.5 ng/g
  Liver: 23.3 ng/g and 39.5 ng/g and 56.7 ng/g
  Plasma: 165 ng/mL and 335 ng/mL and 412 ng/mL
[6]; heart, 10 mg/kg, Table 4, 3 h, individual animal, read-out: Heart
  concentration at 3 h: 189 ng/g
[6]; heart, 10 mg/kg, Table 4, 3 h, mean, read-out: Heart Mean
  concentration at 3 h: 154 ng/g
[6]; heart, 10 mg/kg, Table 4, 8 h, mean, read-out: Heart Mean
  concentration at 8 h: 50.5 ng/g
[6]; heart, 10 mg/kg, Table 4, 24 h, mean, read-out: Heart Mean
  concentration at 24 h: 0 ng/g
[6]; heart, 10 mg/kg, Table 6, 3.00 h, individual animal, read-out: Heart
  concentration at 3 h: 197 ng/g
[6]; heart, 10 mg/kg, Table 6, 3.00 h, mean, read-out: Heart Mean
  concentration at 3 h: 194 ng/g
[6]; heart, 10 mg/kg, Table 6, 8.00 h, individual animal, read-out: Heart
  concentration at 8 h: 139 ng/g
[6]; heart, 10 mg/kg, Table 6, 8.00 h, mean, read-out: Heart Mean
  concentration at 8 h: 150 ng/g
[6]; heart, 10 mg/kg, Table 6, 24.0 h, mean, read-out: Heart Mean
  concentration at 24 h: 13.5 ng/g
[6]; liver, 10 mg/kg, Table 4, 3 h, individual animal, read-out: Liver
  concentration at 3 h: 4300 ng/g
[6]; liver, 10 mg/kg, Table 4, 3 h, mean, read-out: Liver Mean
  concentration at 3 h: 3670 ng/g
[6]; liver, 10 mg/kg, Table 4, 8 h, mean, read-out: Liver Mean
  concentration at 8 h: 617 ng/g
[6]; liver, 10 mg/kg, Table 4, 24 h, mean, read-out: Liver Mean
  concentration at 24 h: 22 ng/g
[6]; liver, 10 mg/kg, Table 6, 3.00 h, individual animal, read-out: Liver
  concentration at 3 h: 1880 ng/g
[6]; liver, 10 mg/kg, Table 6, 3.00 h, mean, read-out: Liver Mean
  concentration at 3 h: 1580 ng/g
[6]; liver, 10 mg/kg, Table 6, 8.00 h, individual animal, read-out: Liver
  concentration at 8 h: 689 ng/g
[6]; liver, 10 mg/kg, Table 6, 8.00 h, mean, read-out: Liver Mean
  concentration at 8 h: 591 ng/g
[6]; liver, 10 mg/kg, Table 6, 24.0 h, mean, read-out: Liver Mean
  concentration at 24 h: 39.8 ng/g
[6]; plasma, 10 mg/kg, Table 4, 3 h, individual animal, read-out: Plasma
  concentration at 3 h: 9340 ng/mL
[6]; plasma, 10 mg/kg, Table 4, 3 h, mean, read-out: Plasma Mean
  concentration at 3 h: 7860 ng/mL
[6]; plasma, 10 mg/kg, Table 4, 8 h, mean, read-out: Plasma Mean
  concentration at 8 h: 3220 ng/mL
[6]; plasma, 10 mg/kg, Table 4, 24 h, mean, read-out: Plasma Mean
  concentration at 24 h: 164 ng/mL
[6]; plasma, 10 mg/kg, Table 6, 3.00 h, mean, read-out: plasma Mean
  concentration at 3 h: 5260 ng/mL
[6]; plasma, 10 mg/kg, Table 6, 8.00 h, mean, read-out: plasma Mean
  concentration at 8 h: 3430 ng/mL
[6]; plasma, 10 mg/kg, Table 6, 24.0 h, mean, read-out: plasma Mean
  concentration at 24 h: 304 ng/mL
[6]; 10 mg/kg, Table 6, 3.00 h, individual animal, read-out: plasma
  concentration at 3 h: 5450 ng/mL
[6]; 10 mg/kg, Table 6, 8.00 h, individual animal, read-out: plasma
  concentration at 8 h: 3330 ng/mL
[2]; C57 mice, single administration, 10 mg/kg, after 24 h of administration
  expression of CYP7α1, ME2, and LDLR genes in the liver: significantly up-regulated
[2]; C57 mice, single administration, after 8 and 24 h of administration, T3 0.5 mg/kg, compound 38 10 mg/kg
  DIO1 gene expression in the liver: significantly up-regulated
